What all share (format): in vitro ADME
The target of one experiment is T1, CYP2A6 (Homo sapiens, UniProt P11509).
T1 construct: incubation mixtures containing pooled human liver microsomes (HLMs, XTreme 200, XenoTech); tissue XenoTech XTreme 200; host or cells: pooled human liver microsomes
T1 sequence (P11509 1-494): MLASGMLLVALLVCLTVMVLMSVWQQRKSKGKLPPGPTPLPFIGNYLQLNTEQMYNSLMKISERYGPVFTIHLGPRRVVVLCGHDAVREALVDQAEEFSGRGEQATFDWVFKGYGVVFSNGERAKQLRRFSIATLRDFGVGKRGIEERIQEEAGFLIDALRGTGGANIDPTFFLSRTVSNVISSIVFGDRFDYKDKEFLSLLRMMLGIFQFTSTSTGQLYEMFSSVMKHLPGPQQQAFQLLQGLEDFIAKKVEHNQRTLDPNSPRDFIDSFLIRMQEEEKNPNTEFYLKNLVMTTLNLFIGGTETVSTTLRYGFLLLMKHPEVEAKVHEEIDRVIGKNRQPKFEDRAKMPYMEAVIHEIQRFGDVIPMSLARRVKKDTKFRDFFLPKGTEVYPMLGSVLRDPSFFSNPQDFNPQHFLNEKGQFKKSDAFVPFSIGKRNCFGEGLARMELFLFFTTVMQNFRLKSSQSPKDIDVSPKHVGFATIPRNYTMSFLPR
As to the kind of experiment: Inhibition of CYP2A6 (coumarin) activity in pooled human liver microsomes, cocktail incubation. The conditions noted are these: substrate coumarin 5 µM; pooled HLMs; read-out: IC50, P450 2A6. The procedure:
(§1) The inhibitory potential of the five biflavonoids on the metabolism of nine P450 probe substrates was evaluated using previously developed methods with minor modifications. Biflavonoids were dissolved in methanol. The final concentration of methanol in the incubation mixture was 1.0% (v/v). We used these P450 probe substrates: phenacetin for CYP1A2, coumarin for CYP2A6, bupropion for CYP2B6, amodiaquine for CYP2C8, diclofenac for CYP2C9, omeprazole for CYP2C19, dextromethorphan for CYP2D6, chlorzoxazone for CYP2E1 and midazolam for CYP3A (Table 1). The incubation mixtures containing pooled human liver microsomes (HLMs, XTreme 200, XenoTech), P450 probe substrates, and inhibitor (0~20 µM) were pre-incubated at 37 °C for 5 min. The concentration range of the inhibitor varied (0, 0.002, 0.005, 0.02, 0.05, and 0.2 µM for CYP2C8; 0, 0.02, 0.05, 0.2, 0.5, and 2 µM for CYP2C9; 0, 0.5, 2, 5, 10, and 20 µM for other P450 isoforms). After pre-incubation, a reduced nicotinamide adenine dinucleotide phosphate (NADPH) generation system containing 1 unit/ml G6PDH, 1.3 mM β- nicotinamide adenine dinucleotide phosphate (β- NADP^+), 3.3 mM MgCl2, and 3.3 mM G6P was added to initiate a reaction, and further incubated for 10 min at 37 °C. The reaction was stopped by adding 50 μL of ice-cold acetonitrile containing 7 nM trimipramine (internal standard, IS). After centrifugation at 18,000 g (5 min, 4 °C), aliquots of supernatants were analyzed by LC–MS/MS (Shimadzu LCMS 8060 system, Shimadzu, Kyoto, Japan). All microsomal incubations were conducted in triplicate.
(§2) All metabolites and the IS were separated on a Kinetex XB-C18 column (100 × 2.10 mm, 2.6 μm, 100 Å; Phenomenex, Torrance, CA, USA) and analyzed using a Shimadzu LCMS 8060 triple-quadrupole mass spectrometer coupled with a Nexera X2 ultra high-performance liquid chromatography system (Shimadzu, Kyoto, Japan) equipped with an electrospray ionization interface. The mobile phase consisted of 0.1% formic acid in water (A) and 0.1% formic acid in acetonitrile (B). The elution condition was set as 8% B (0–0.5 min), 8%→60% B (0.5–5 min), 60% B (5–6 min), 60%→8% B (6–6.1 min) and 8% B (6.1–9 min) for the analysis of metabolites of P450 probe substrates and set as 0%→40% B (0–1 min), 40%→50% B (1–5 min), 50%→0% B (5–5.1 min), and 0% B (5.1–8 min) for the analysis of metabolites of UGT probe substrates. The flow rate was 0.2 mL/min. Electrospray ionization was performed in positive-ion mode at 4000 V or in negative-ion mode at −3500 V. The optimum operating conditions were determined as follows: vaporizer temperature, 300 °C; capillary temperature, 350 °C; collision gas (argon) pressure, 1.5 mTorr. Quantitation was conducted in selected reaction monitoring (SRM) modes with the precursor-to-product ion transition for each metabolite (Table 1 and Table 2).
(§3) We analyzed the data with Shimadzu LabSolution LC–MS software. The IC50 values were calculated by WinNonlin software (Pharsight, Mountain View, CA, USA). The type of inhibition and the apparent kinetic parameters for inhibitory activity (Ki) were determined by following several criteria: visual inspection of Dixon plots, Lineweaver–Burk double reciprocal plots, and secondary plots of Lineweaver–Burk plots versus biflavonoid concentrations, the size of the sum of squares of the residuals, Akaike Information Criteria values, the S.E. and 95% confidence interval of the parameter estimates from the nonlinear regression analysis using the WinNonlin software. The models tested included competitive, competitive partial, noncompetitive, noncompetitive partial, uncompetitive, uncompetitive partial, and mixed-type inhibition.
A general note: Microsomes from liver hold many membrane-bound enzymes, among them those of drug oxidation.

The target in the next experiment is T2, CYP2D6 (Homo sapiens, UniProt P10635).
T2 construct: incubation mixtures containing pooled human liver microsomes (HLMs, XTreme 200, XenoTech); tissue XenoTech XTreme 200; host or cells: pooled human liver microsomes
As to the kind of experiment: Inhibition of CYP2D6 (dextromethorphan) activity in pooled human liver microsomes. The conditions noted are these: substrate dextromethorphan 5 µM; pooled HLMs; read-out: IC50, P450 2D6. The procedure: as §1, §2, §3

The next experiment concerns the target T3, CYP2E1 (Homo sapiens, UniProt P05181).
T3 construct: incubation mixtures containing pooled human liver microsomes (HLMs, XTreme 200, XenoTech); tissue XenoTech XTreme 200; host or cells: pooled human liver microsomes
As to the kind of experiment: Inhibition of CYP2E1 (chlorzoxazone) activity in pooled human liver microsomes. Particulars: substrate chlorzoxazone 50 µM; pooled HLMs; read-out: IC50, P450 2E1. The procedure:
as §1, §2, §3

pIC50: −log10 of the molar value.

Here are results for 6 molecules from paper PMC7238120, “Strong and Selective Inhibitory Effects of the Biflavonoid Selamariscina A against CYP2C8 and CYP2C9 Enzyme Activities in Human Liver Microsomes” (Pharmaceutics, 2020).

T2 sequence (P10635 whole entry): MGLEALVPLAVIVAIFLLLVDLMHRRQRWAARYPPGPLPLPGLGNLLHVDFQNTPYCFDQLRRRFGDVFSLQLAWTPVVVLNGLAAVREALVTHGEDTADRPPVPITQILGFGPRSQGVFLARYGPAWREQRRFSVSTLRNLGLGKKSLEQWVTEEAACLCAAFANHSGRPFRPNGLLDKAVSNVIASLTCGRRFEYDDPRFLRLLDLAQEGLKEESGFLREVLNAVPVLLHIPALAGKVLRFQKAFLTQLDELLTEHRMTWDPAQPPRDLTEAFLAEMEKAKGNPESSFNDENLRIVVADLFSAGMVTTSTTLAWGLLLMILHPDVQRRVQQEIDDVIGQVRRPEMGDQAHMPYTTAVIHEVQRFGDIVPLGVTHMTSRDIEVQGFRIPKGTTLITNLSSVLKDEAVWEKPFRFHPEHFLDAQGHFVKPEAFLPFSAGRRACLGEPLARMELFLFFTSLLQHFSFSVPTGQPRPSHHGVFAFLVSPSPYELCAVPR
T3 sequence (P05181 whole entry): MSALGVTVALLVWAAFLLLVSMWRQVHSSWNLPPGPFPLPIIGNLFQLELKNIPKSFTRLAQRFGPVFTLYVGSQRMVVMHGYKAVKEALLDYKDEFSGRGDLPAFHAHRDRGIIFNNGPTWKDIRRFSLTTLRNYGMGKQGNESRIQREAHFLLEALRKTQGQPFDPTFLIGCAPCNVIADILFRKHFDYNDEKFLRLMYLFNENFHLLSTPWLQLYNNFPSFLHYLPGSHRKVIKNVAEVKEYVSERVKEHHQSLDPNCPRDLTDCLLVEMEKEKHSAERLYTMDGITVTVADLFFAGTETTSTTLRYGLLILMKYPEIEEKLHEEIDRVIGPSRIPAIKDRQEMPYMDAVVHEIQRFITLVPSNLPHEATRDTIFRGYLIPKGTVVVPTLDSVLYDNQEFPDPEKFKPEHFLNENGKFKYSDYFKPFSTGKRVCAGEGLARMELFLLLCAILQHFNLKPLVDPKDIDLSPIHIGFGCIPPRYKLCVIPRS

As to `O=c1cc(-c2ccc(O)c(-c3c(O)cc4oc(-c5ccc(O)cc5)cc(=O)c4c3O)c2)oc2cc(O)cc(O)c12` [robustaflavone], the pIC50 is 4.93 on CYP2A6, 5.66 at CYP2D6 and 5.54 at CYP2E1.

`O=c1cc(-c2ccc(O)c(-c3c(-c4ccc(O)cc4)oc4cc(O)cc(O)c4c3=O)c2)oc2cc(O)cc(O)c12` [taiwaniaflavone]: the pIC50 was 4.97 on CYP2A6, 5.49 on CYP2D6 and 5.22 on CYP2E1.

For `O=C1CC(c2cc(-c3c(O)ccc4c(=O)cc(-c5ccc(O)cc5)oc34)c(O)cc2O)Oc2cc(O)cc(O)c21` (stereo not drawn) [selamariscina A], the pIC50 at CYP2A6 was 4.94; at CYP2D6, 4.97; on CYP2E1, below 4.70.

In the case of `CC(C)(O)c1ccccc1CC[C@@H](SCC1(CC(=O)O)CC1)c1cccc(/C=C/c2ccc3ccc(Cl)cc3n2)c1` [montelukast, reference compound], the pIC50 on CYP2A6, on CYP2D6 and on CYP2E1 was below 4.30 each time.

For the molecule `O=c1cc(-c2ccc(O)c(-c3c(O)cc(O)c4c(=O)cc(-c5ccc(O)cc5)oc34)c2)oc2cc(O)cc(O)c12` [amentoflavone], the pIC50 is 4.92 on CYP2A6, 5.59 on CYP2D6 and 5.48 on CYP2E1.

For `O=c1cc(-c2ccc(O)cc2)oc2c(-c3c(O)cc(O)c4c(=O)cc(-c5ccc(O)cc5)oc34)c(O)cc(O)c12` [cupressuflavone], the pIC50 at CYP2A6 is below 4.70; on CYP2D6, 5.57; at CYP2E1 it was 5.64.

What is called pIC50 is the negative decadic logarithm of the IC50, by convention in mol/L.
